Like-named read-outs stand apart in the source and are kept apart here.
Procedure: Soil cores (1 inch diameter and 6 inches deep) were taken from a creeping bentgrass putting green and dried at 65° C. for 48 hours then allowed to air dry for 2 days. […] The soil cores were allowed to air dry for additional 4 days and the water drop penetration test was repeated using the same method. The four treatments were 1) control (distilled water), 2) distilled water plus choline at 0.125 oz./1,000 ft^2, 3) distilled water plus choline at 0.25 oz./1,000 ft^2, and 4) distilled water plus choline at 0.5 oz./1,000 ft^2. There were 3 replications for each treatment. The water drops from distilled water or choline solution were placed on soil cores 0.75 inch from the soil surface. As soon as the water drops reached the soil, a timer was started. When each water drop had disappeared and the water had penetrated into the soil, the time elapsed was recorded.
[1] = choline 0.125 oz/1000 ft2 in distilled water
[2] = choline 0.25 oz/1000 ft2 in distilled water
[3] = choline 0.5 oz/1000 ft2 in distilled water

C[N+](C)(C)CCO.[Cl-] [Choline, choline chloride]
time of water drop penetration, first test (2 days after oven drying of soil cores, not quantified): reduced the time of water drop penetration | Time of water drop penetration, Average [1]: 250.3ab seconds | Time of water drop penetration, Rep I [1]: 454 s | Time of water drop penetration, Rep II [1]: 106 s | Time of water drop penetration, Rep III [1]: 191 s | Time of water drop penetration, Average (choline 0.125 oz/1000 ft2 in distilled water, listed as choline): 250.3 s | Time of water drop penetration, Average [2]: 129.7ab seconds | Time of water drop penetration, Rep I [2]: 110 s | Time of water drop penetration, Rep II [2]: 72 s | Time of water drop penetration, Rep III [2]: 207 s | Time of water drop penetration, Average (choline 0.25 oz/1000 ft2 in distilled water, listed as choline): 129.7 s | Time of water drop penetration, Average [3]: 97.7b seconds | Time of water drop penetration, Rep I [3]: 97 s | Time of water drop penetration, Rep II [3]: 26 s | Time of water drop penetration, Rep III [3]: 170 s | Time of water drop penetration, Average (choline 0.5 oz/1000 ft2 in distilled water, listed as choline): 97.7 s | Water drop penetration time shorter relative to the control (distilled water) (choline solution 0.5 oz./1,000 ft^2): 2.5 fold

Reference: patent US20250151724A1, “Liquid Soil Treatments Containing Choline” (Harrell's, LLC, priority 2023, published 2025)
